The experiment has as its target T1, Muscarinic acetylcholine Receptor M2 (CHRM2) (Homo sapiens, UniProt P08172).
T1 construct: host or cells: cAMP Hunter cell lines
Description: SAFETYscan GPCR cAMP. It counts as cell-based.

Bounds are passed on as bounds.

Consider one compound from publication PMC7497641, “Neurotropic activity and safety of methylene-cycloalkylacetate (MCA) derivative 3-(3-allyl-2-methylenecyclohexyl) propanoic acid” (ACS Chemical Neuroscience, 2020).

T1 sequence (P08172 whole entry): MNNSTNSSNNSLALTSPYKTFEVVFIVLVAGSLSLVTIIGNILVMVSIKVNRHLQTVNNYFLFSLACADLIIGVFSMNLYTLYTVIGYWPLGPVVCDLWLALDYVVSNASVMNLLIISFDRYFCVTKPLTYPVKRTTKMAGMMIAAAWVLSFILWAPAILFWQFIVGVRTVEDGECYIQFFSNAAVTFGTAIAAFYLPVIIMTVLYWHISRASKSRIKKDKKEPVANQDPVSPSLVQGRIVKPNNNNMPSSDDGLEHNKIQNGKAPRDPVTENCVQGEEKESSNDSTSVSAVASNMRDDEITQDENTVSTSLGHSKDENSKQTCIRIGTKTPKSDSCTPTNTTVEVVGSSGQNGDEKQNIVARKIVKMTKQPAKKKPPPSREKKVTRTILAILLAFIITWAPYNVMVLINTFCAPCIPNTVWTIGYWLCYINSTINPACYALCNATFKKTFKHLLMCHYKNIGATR

On to `C=CCC1CCCC(CCC(=O)O)C1=C` (centres unmarked) [HU-MCA-13, 3-(3-allyl-2-methylenecyclohexyl)propanoic acid], for which the EC50 was over 10 µM and the IC50 is over 10 µM.
